Structures can show the parent of a compound that is named as a salt.
Experiments:
[1] = biological target: T1, Methanosaeta concilii mevalonate kinase (mcl), wild type, SEQ ID NO:6, N-terminal His-tag (Methanothrix soehngenii, UniProt F4BZB3); assay: biochemical
T1 sequence (F4BZB3 1-317): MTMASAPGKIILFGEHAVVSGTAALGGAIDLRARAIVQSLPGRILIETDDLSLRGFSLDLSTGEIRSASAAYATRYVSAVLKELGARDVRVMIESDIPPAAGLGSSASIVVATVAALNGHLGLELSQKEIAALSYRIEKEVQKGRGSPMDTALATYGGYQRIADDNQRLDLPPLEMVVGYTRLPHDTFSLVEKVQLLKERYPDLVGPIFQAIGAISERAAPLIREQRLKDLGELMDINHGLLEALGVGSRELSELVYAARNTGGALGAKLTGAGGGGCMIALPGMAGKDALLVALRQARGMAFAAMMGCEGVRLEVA

[2] = biological target: Nitrosopumilus maritimus mevalonate kinase (nmr), wild type, SEQ ID NO:9, N-terminal His-tag (Nitrosopumilus maritimus, UniProt A9A427); assay: Inhibition of nmr-derived mevalonate kinase by DMAPP, GPP, FPP or DPM; type: biochemical
Protocol: (§1) Km value was calculated by Lineweaver-Burk plot.
(§2) Since GPP and FPP solutions contain methanol, methanol which was needed to keep the same methanol level at the addition to the reaction system was added to the reaction solution, which was designated as control.
(§3) Effect of 1 mM diphosphomevalonate (DPM) on each enzyme was also studied.

[3] = biological target: Methanocella paludicola mevalonate kinase (mpd), wild type, SEQ ID NO:1, N-terminal His-tag (Methanocella paludicola, UniProt D1YZ39); assay: Inhibition of mpd-derived mevalonate kinase by DMAPP, GPP, FPP or DPM; type: biochemical
Protocol: as §1, §2, §3

[4] = biological target: Corynebacterium variabile mevalonate kinase (cva), wild type, SEQ ID NO:3, N-terminal His-tag (Corynebacterium variabile, UniProt A0A0X2NLH5); assay: Inhibition of cva-derived mevalonate kinase by DMAPP, GPP, FPP or DPM; type: biochemical
Protocol: as §1, §2, §3

[5] = biological target: T2, Methanosarcina mazei mevalonate kinase (mma), wild type, SEQ ID NO:12, N-terminal His-tag (Methanosarcina mazei, UniProt Q8PW39); assay: Inhibition of mma-derived mevalonate kinase by DMAPP, GPP, FPP or DPM; type: biochemical
T2 sequence (Q8PW39 1-301): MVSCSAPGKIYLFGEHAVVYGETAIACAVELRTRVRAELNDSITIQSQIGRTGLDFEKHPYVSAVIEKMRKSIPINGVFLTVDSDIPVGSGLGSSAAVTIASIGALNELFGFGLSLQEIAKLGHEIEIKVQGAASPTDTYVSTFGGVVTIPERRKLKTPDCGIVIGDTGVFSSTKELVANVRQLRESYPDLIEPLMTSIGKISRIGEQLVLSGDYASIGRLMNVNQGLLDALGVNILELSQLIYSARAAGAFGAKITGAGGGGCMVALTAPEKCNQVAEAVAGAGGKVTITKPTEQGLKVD
Protocol: as §1, §2, §3

[6] = biological target: T1, Methanosaeta concilii mevalonate kinase (mcl), wild type, SEQ ID NO:6, N-terminal His-tag; assay: Inhibition of mcl-derived mevalonate kinase by DMAPP, GPP, FPP or DPM; type: biochemical
Protocol: as §1, §2, §3

[7] = substrate: Nc1ncnc2c1ncn2[C@@H]1O[C@H](COP(=O)(O)OP(=O)(O)OP(=O)(O)O)[C@@H](O)[C@H]1O; assay: purified protein, by the assay type; conditions: 5 mM potassium mevalonate, pH 7.6, 30° C., Lineweaver-Burk plot
Protocol: Each obtained plasmid was used for transformation of E. coli BL21(DE3). […] When OD600 reached approximately 0.5, 0.1 mM IPTG (for cva, mma, nmr, and sce) or 1 mM (for mcl and mpd) of IPTG was added, and then the mixture was kept at 20° C. overnight to induce the target protein. […] After centrifugation (28,000×g, 30 min), the supernatant was adsorbed onto His-Trap HP (GE Healthcare) to elute the target protein by linear concentration gradient of Imidazol (final concentration 0.5 M). Obtained protein was dialyzed by using an external solution composed of 20 mM Tris-HCl (pH 8.0) containing 1 mM DTT and 50 mM NaCl. Dialyzed protein was designated as purified enzyme. Protein quantity was measured with Bio-RAD protein assay kit and BSA standard condition.
Decrease in absorbance at 340 nm at 30° C. was measured to determine the enzyme activity. JASCO Corporation's spectrophotometer (V-650) was used in this study. […] Km value was calculated by Lineweaver-Burk plot.

Sequence of Corynebacterium variabile mevalonate kinase (cva), wild type, SEQ ID NO:3, N-terminal His-tag (A0A0X2NLH5 entry or part of it): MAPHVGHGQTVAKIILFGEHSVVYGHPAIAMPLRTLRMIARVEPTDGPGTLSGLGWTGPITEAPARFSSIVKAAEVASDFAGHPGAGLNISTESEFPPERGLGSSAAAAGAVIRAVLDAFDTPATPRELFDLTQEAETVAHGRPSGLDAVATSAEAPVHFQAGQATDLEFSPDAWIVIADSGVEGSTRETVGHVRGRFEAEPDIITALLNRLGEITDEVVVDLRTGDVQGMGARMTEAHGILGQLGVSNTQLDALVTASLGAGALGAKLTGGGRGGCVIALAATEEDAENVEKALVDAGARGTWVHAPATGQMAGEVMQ
Sequence of Nitrosopumilus maritimus mevalonate kinase (nmr), wild type, SEQ ID NO:9, N-terminal His-tag (A9A427 1-313): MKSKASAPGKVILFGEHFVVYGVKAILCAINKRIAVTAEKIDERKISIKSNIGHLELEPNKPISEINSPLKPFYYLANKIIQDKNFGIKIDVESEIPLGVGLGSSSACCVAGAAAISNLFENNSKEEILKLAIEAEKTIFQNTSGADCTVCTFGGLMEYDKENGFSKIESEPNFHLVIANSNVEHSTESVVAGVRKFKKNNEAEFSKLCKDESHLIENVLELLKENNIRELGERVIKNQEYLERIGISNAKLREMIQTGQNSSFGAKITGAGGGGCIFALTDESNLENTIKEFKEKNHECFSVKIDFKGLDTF

With `CC(C)=CCOP(=O)(O)OP(=O)(O)O.N.N.N` [DMAPP, Dimethylallyl diphosphate ammonium salt] as the molecule, how does the “Enzyme activity with 33.6 μM DMAPP” value ([1]; mcl, 33.6 μM DMAPP, control (H2O) 0.15403) read?
The value was 0.1527 dABS/min.

What about the “Enzyme activity with 168 μM DMAPP” value ([1]; mcl, 168 μM DMAPP, control (H2O) 0.15403) of the same molecule?
Its value is 0.1552 dABS/min.

What about the activation at 5000 µM ([1]; read-out: Increase of relative activity) of the same molecule?
The activation at 5000 µM was 20%.

What about the “Enzyme activity with 5 mM DMAPP” value ([2]; 5 mM DMAPP, control 0.2438) of the same molecule?
The value was 0.231 dABS/min.

What about the “Enzyme activity with 5 mM DMAPP” value ([3]; 5 mM DMAPP, control 0.15734) of the same molecule?
Its value is 0.1528 dABS/min.

And the “Enzyme activity with 5 mM DMAPP” value ([4]; 5 mM DMAPP, control 0.08338)?
The value was 0.0786 dABS/min.

And the “Enzyme activity with 5 mM DMAPP” value ([5]; 5 mM DMAPP, control 0.21)?
The value was 0.1904 dABS/min.

What about the “Enzyme activity with 5 mM DMAPP” value ([6]; mcl, 5 mM DMAPP, control 0.1482) of the same molecule?
The value was 0.1806 dABS/min.

What about the activation at 5000 µM ([6]; read-out: Increase of activity from that of the control) of the same molecule?
Its activation at 5000 µM is 20%.

With `CC(C)=CCC/C(C)=C/COP(=O)(O)OP(=O)(O)O` [GPP, geranyl phyrophosphate ammonium salt] as the molecule, how does the “Enzyme activity with 0.1 mM GPP” value ([2]; 0.1 mM GPP, control 0.2438) read?
Its value is 0.2427 dABS/min.

And the “Enzyme activity with 0.1 mM GPP” value ([3]; 0.1 mM GPP, control 0.15734)?
Its value is 0.1589 dABS/min.

What about the “Enzyme activity with 0.1 mM GPP” value ([4]; 0.1 mM GPP, control 0.08338) of the same molecule?
Its value is 0.07532 dABS/min.

What about the “Enzyme activity with 0.1 mM GPP” value ([5]; 0.1 mM GPP, control 0.21) of the same molecule?
Its value is 0.2009 dABS/min.

And the “Enzyme activity with 0.1 mM GPP” value ([6]; mcl, 0.1 mM GPP, control 0.1482)?
The value was 0.1538 dABS/min.

What does the source list for `C=C(C)CCOP(=O)(O)OP(=O)(O)O.N.N.N` [IPP, Isopentenyl pyrophosphate tri-ammonium salt]?
Enzyme activity with 33.6 μM IPP ([1]; mcl, 33.6 μM IPP, control (MeOH) 0.15939): 0.158 dABS/min; Enzyme activity with 168 μM IPP ([1]; mcl, 168 μM IPP, control (MeOH) 0.15939): 0.1606 dABS/min

With `CC(C)=CCC/C(C)=C/CC/C(C)=C/COP(=O)(O)OP(=O)(O)O` [FPP, farnesyl pyrophosphate ammonium salt] as the molecule, how does the “Inhibition by FPP” value ([2]; 0.1 mM FPP) read?
The value was “no other enzymes were inhibited strongly”.

What about the “Enzyme activity with 0.1 mM FPP” value ([2]; 0.1 mM FPP, control 0.2438) of the same molecule?
The value was 0.224 dABS/min.

What about the “Inhibition by FPP” value ([3]; 0.1 mM FPP) of the same molecule?
Its value is “no other enzymes were inhibited strongly”.

What about the “Enzyme activity with 0.1 mM FPP” value ([3]; 0.1 mM FPP, control 0.15734) of the same molecule?
The value was 0.1594 dABS/min.

And the “Inhibition by FPP” value ([4]; 0.1 mM FPP)?
The value was “inhibited”.

And the “Enzyme activity with 0.1 mM FPP” value ([4]; 0.1 mM FPP, control 0.08338)?
The value was 0.04775 dABS/min.

And the “Inhibition by FPP” value ([5]; 0.1 mM FPP)?
The value was “no other enzymes were inhibited strongly”.

What about the “Enzyme activity with 0.1 mM FPP” value ([5]; 0.1 mM FPP, control 0.21) of the same molecule?
Its value is 0.2059 dABS/min.

What about the “Inhibition by FPP” value ([6]; mcl, 0.1 mM FPP) of the same molecule?
Its value is “no other enzymes were inhibited strongly”.

What about the “Enzyme activity with 0.1 mM FPP” value ([6]; mcl, 0.1 mM FPP, control 0.1482) of the same molecule?
The value was 0.1562 dABS/min.

B1: Methanocella paludicola mevalonate kinase (mpd), wild type, SEQ ID NO:1, N-terminal His-tag (Methanocella paludicola SANAE) (protein)
chain: MTMCSAPGKVFLFGEHAVVYGKRAIACAIDLRTTVEVSRKSRGVHIHSAFKDEPDKNLYIKTAVKRMQKCADIRNVNIAVSSRIPVASGLGSSAAVTVATIGALNEEFSAGLSKKDIAYMAYQTELEVQGAASPTDTFVSTMGGTVVVPDMRTLPPITCGIVVGHTGISKSTSRMVSRVRTLKEKYPDVIDGIMDSIGDISARGEDLIKQNDYRSIGELMNVNQGLLDALGITIPELSLQIYAARQHGAYGAKITGAGGGGCMVAICDDKNCKEIATAIGRSYGDSFISKPTAEGIFIQ
Which Km ([7]; other: mpd) does the source give for B1 here?
The Km was 119 ± 2.1 µM.

B2: Methanosaeta concilii mevalonate kinase (mcl), wild type, SEQ ID NO:6, N-terminal His-tag (Methanothrix soehngenii GP6) (protein)
chain: MTMASAPGKIILFGEHAVVSGTAALGGAIDLRARAIVQSLPGRILIETDDLSLRGFSLDLSTGEIRSASAAYATRYVSAVLKELGARDVRVMIESDIPPAAGLGSSASIVVATVAALNGHLGLELSQKEIAALSYRIEKEVQKGRGSPMDTALATYGGYQRIADDNQRLDLPPLEMVVGYTRLPHDTFSLVEKVQLLKERYPDLVGPIFQAIGAISERAAPLIREQRLKDLGELMDINHGLLEALGVGSRELSELVYAARNTGGALGAKLTGAGGGGCMIALPGMAGKDALLVALRQARGMAFAAMMGCEGVRLEVA
How did the Km ([7]; other: mcl) turn out when B2 was run?
Its Km is 74 ± 1.4 µM.
